Measurements published in patent publication US20250339396A1 (COSMAS THERAPEUTICS DEVELOPMENT INC., priority 2021, published 2025).
Read-outs that look alike come from different tables or passages of the source.

How the values were obtained:
[1] = cited from earlier work
neuropathic (SNI) rats = experiment: Mechanical allodynia (von Frey, 50% paw withdrawal threshold) after spared nerve injury (SNI); assay type: in vivo, rat; settings: for withdrawal threshold over time vs. vehicle (two-way ANOVA, FIG. 1A): 0.5-8 h; for withdrawal threshold vs. vehicle, Bonferroni post-hoc p: after 1 hour; for AUC of withdrawal threshold vs. vehicle (FIG. 3B): p<0.01; for Area Under the Curve (AUC) of withdrawal threshold vs. vehicle, Bonferroni p (FIG. 2B) / withdrawal threshold over time vs. vehicle (two-way ANOVA, FIG. 2A): dose not given for prodrugs E, F; for withdrawal threshold over time vs. vehicle (two-way ANOVA, FIG. 2A): per os
Description: Experiments were performed in male Sprague-Dawley rats (body weight: 250-300 g; Charles River Laboratories, St. Constant, QC, Canada) and adult male C57BL mice (body weight: 25-30 g; inbred). All animals were housed in small groups at a constant temperature of 22° C., with food and water provided ad libitum, and maintained under a 12 h light/dark cycle (lights on at 7:00 AM; lights off at 7:00 PM). All experimental procedures were conducted in accordance with the guidelines of the Canadian Council on Animal Care, and the protocols were approved by the Animal Care Committee at McGill University.
The different prodrug compounds as synthesized in Example 2 were tested and compared with Gabapentin (150 mg/kg, purchased from Sigma Aldrich, US). Prodrug was dissolved in saline, water, or a vehicle composed of 40% PEG400 and 60% water. Gabapentin was dissolved in a vehicle composed of 40% PEG400 and 60% water. All drugs (doses see the procedure descriptions below) were administrated per os (gavage) through a curved feeding tube (20 G for rats and 22 G for mice) at the beginning of the experiment unless otherwise specified. The dose of prodrug was chosen based on its pharmacokinetic properties, and the doses of Gabapentin were chosen from literature (Lopez-Canul, Palazzo et al. 2015).
Spared nerve injury was performed according to the method of (Decosterd I and Woolf CJ, 2000), see also Lopez-Canul et al., 2015. Rats and mice were anesthetized with isoflurane. The sciatic nerve was exposed at mid-thigh level distal to the trifurcation and freed of connective tissue; the three peripheral branches (sural, common peroneal, and tibial nerves) of the sciatic nerve were exposed without stretching nerve structures. Both tibial and common peroneal nerves were ligated and transected together. Tactile allodynia was absent in healthy (pre-surgery) and sham rats, and the mechanical withdrawal threshold in rats before SNI (pre-surgery) or sham was very close to the cutoff of dynamic plantar aesthesiometer (30 g) (Ugo Basile, Varese, Italy).
On day 14 after surgery, individual rats were placed in a test chamber (clear plastic wire mesh-bottomed cage) and allowed to acclimatize for 30 to 40 minutes. Von Frey filaments (Stoelting, Wood Dale, IL) were used to measure the 50% paw withdrawal threshold using the up-and-down method reported by {Chaplan, 1994 #399}. […] Lifting of the paw indicated a positive response and prompted the use of the […], whereas absence of paw withdrawal after 5 seconds indicated a negative response and prompted the next filament of increasing weight. This paradigm continued for 4 more measurements after the initial change of the behavioral response or until 5 consecutive negative or 4 consecutive positive responses. Based on observations on normal, unoperated, and sham-operated rats, the cutoff value of 15 g was selected as the upper limit for testing because stiffer hairs tended to raise the entire limb rather than to buckle, substantially changing the nature of the stimulus. The resulting scores were used to calculate the 50% response threshold using the formula proposed by Dixon. Allodynia was considered to be present when paw withdrawal thresholds were <4 g, and drugs raising this threshold were considered antiallodynic {Lopez-Canul, 2015}. Accordingly, all nerve ligated rats were verified to be allodynic, responding to a stimulus of <4 g. Rats without mechanical allodynia were excluded. After the determination of the basal response, allodynia was assessed at baseline, 0.5, 1, 1.5, 2, 2.5, 3, 4, 5, 6, 7, and 8 hours post-administration for each treatment described below. Groups of 5 to 6 rats per treatment were used, with each animal being used for 1 treatment only. […]

[2] = in vivo; cited from earlier work
[3] = dose of 40 mg/kg; cited from earlier work
[4] = Oral bioavailability and brain penetrance of UCM765 and UCM924

In the case of `COc1ccc2cccc(CCNC(C)=O)c2c1` [Agomelatine], the bioavailability ([1]; at the therapeutic oral dose) is given as less than 5%.

For `COc1ccc2[nH]cc(CCNC(C)=O)c2c1` [MLT, Melatonin], the half-life ([1]; in vivo) is given as less than 30 min.

With `CC(=O)N(CCN(c1ccc(F)cc1)c1cccc(Br)c1)COC(=O)C(C)(C)C` [Prodrug A, (N-(2-((3-bromophenyl)(4-fluorophenyl)amino)ethyl)acetamido) methyl pivalate] the “Area Under the Curve (AUC) of withdrawal threshold vs. vehicle, Bonferroni p (FIG. 1B)” value (neuropathic (SNI) rats; 50 mg/kg per os) was less than 0.01, the “withdrawal threshold over time vs. vehicle (two-way ANOVA, FIG. 1A)” value (neuropathic (SNI) rats; 50 mg/kg per os) was “significantly increased the withdrawal threshold” and the “withdrawal threshold vs. vehicle, Bonferroni post-hoc p” value (neuropathic (SNI) rats; 50 mg/kg per os) was less than 0.001.

For `CCOC(=O)OCN(CCN(c1ccc(F)cc1)c1cccc(Br)c1)C(C)=O` [Prodrug B, (N-(2-((3-bromophenyl)(4-fluorophenyl)amino)ethyl)acetamido) methyl ethyl carbonate], the “withdrawal threshold over time vs. vehicle (two-way ANOVA, FIG. 1A)” value (neuropathic (SNI) rats; 50 mg/kg per os) was “significantly increased the withdrawal threshold” and the “withdrawal threshold vs. vehicle, Bonferroni post-hoc p” value (neuropathic (SNI) rats; 50 mg/kg per os) was less than 0.0001.

With `CC(=O)N(CCN(c1ccc(F)cc1)c1cccc(Br)c1)C(=O)OC(C)OC(=O)CN.Cl` (stereo not shown) [Prodrug C, 1-((acetyl(2-((3-bromophenyl)(4-fluorophenyl)amino)ethyl)carbamoyl)oxy)ethyl 2-aminoacetate hydrochloride] the “withdrawal threshold over time vs. vehicle (two-way ANOVA, FIG. 1A)” value (neuropathic (SNI) rats; 50 mg/kg per os) was “significantly increased the withdrawal threshold”.

For `CC(=O)N(CCN(c1ccc(F)cc1)c1cccc(Br)c1)C(=O)OCOC(=O)CN` [Prodrug D-2, ((acetyl(2-((3-bromophenyl)(4-fluorophenyl)amino)ethyl)carbamoyl)oxy)methyl 2-aminoacetate methane-sulfonate], the “effect on withdrawal threshold in the SNI model (FIG. 3A)” value (neuropathic (SNI) rats; 50 mg/kg) was “not effective”, the “AUC of withdrawal threshold vs. vehicle (FIG. 3B)” value (neuropathic (SNI) rats; 50 mg/kg) was “significant pro-nociceptive effect” and the “effect on withdrawal threshold in the SNI model (FIG. 3A)” value (neuropathic (SNI) rats; 100 mg/kg) was “effective”. For the same compound, the “AUC of withdrawal threshold vs. vehicle (FIG. 3B)” value (neuropathic (SNI) rats; 100 mg/kg) was “modest, but significant anti-nociceptive effect”.

In the case of `CC(=O)N(CCN(c1ccc(F)cc1)c1cccc(Br)c1)C(=O)OCOC(=O)C1CCCN1.Cl` (stereo not shown) [Prodrug E, ((acetyl(2-((3-bromophenyl)(4-fluorophenyl)amino)ethyl)carbamoyl)oxy)methyl pyrrolidine-2-carboxylate hydrochloride], the “Area Under the Curve (AUC) of withdrawal threshold vs. vehicle, Bonferroni p (FIG. 2B)” value (neuropathic (SNI) rats) is reported as less than 0.05, the “withdrawal threshold vs. vehicle, post-hoc p (FIG. 2A)” value (neuropathic (SNI) rats; hour 2, 4 and 5) is reported as less than 0.05 and the “withdrawal threshold, treatment vs. vehicle p (FIG. 2A)” value (neuropathic (SNI) rats; overall) is reported as 0.04. For the same compound, the “withdrawal threshold over time vs. vehicle (two-way ANOVA, FIG. 2A)” value (neuropathic (SNI) rats) was “different from vehicle”.

With `CC(=O)N(CCN(c1ccc(F)cc1)c1cccc(Br)c1)C(=O)OCOC(=O)[C@@H](N)CC(C)C.Cl` [Prodrug F] the “withdrawal threshold vs. vehicle, Bonferroni post-hoc p (FIG. 2A)” value (neuropathic (SNI) rats; after 5, 6 and 7 hours) was less than 0.0001, the “withdrawal threshold vs. vehicle, Bonferroni post-hoc p (FIG. 2A)” value (neuropathic (SNI) rats; after 3 hours) was 0.05 and the “Area Under the Curve (AUC) of withdrawal threshold vs. vehicle, Bonferroni p (FIG. 2B)” value (neuropathic (SNI) rats) was less than 0.001. The “withdrawal threshold over time vs. vehicle (two-way ANOVA, FIG. 2A)” value (neuropathic (SNI) rats) was “significant difference”.

For `CCC(=O)NCC[C@@H]1CCc2ccc3c(c21)CCO3` [Ramelteon], the absolute oral bioavailability ([1]; extensive first-pass metabolism) is given as 1.8%.

For `COc1cccc(N(CCNC(C)=O)c2ccccc2)c1` [UCM765, N-{2-[(3-methoxyphenyl)-phenylamino]ethyl}acetamide], the anti-anxiety properties [2] is given as “possesses anti-anxiety properties”, the “restorative sleep (NREM sleep)” value [3] is given as “facilitated restorative sleep” and the Kp ([4]; brain) is given as 2.5. The bioavailability ([4]; in vivo, po) was 2%.
